The nature of data set [1]: Particle size of Luc DNA-encapsulated lipid nanoparticles. It counts as physicochemical. As to conditions: cationic lipid:DPPC:cholesterol:GM-020=60:10.6:28:1.4 molar ratio. The text has this:
The particle size of the lipid particle (in the composition) can be measured by a known approach. For example, the particle size can be calculated as a Z-average particle size by the cumulant analysis of an autocorrelation function using a particle size measurement apparatus Zetasizer Nano ZS (Malvern Instruments) based on a dynamic light scattering measurement technique. The particle size (average particle size) of the lipid particle (in the composition) is, for example, 10 to 200 nm, preferably 60 to 170 nm.
(§1) A lipid mixture containing a cationic lipid of the Examples shown in Table 2 (cationic lipid:DPPC:cholesterol:GM-020=60:10.6:28:1.4, molar ratio) was dissolved in 90% of EtOH and 10% of water to obtain a 15.0 mg/ml lipid solution. Luciferase (luc) DNA (manufactured by Nature Technology Corp.) was dissolved in a 10 mM MES buffer solution (pH 5.5) to obtain a 0.3 mg/ml nucleic acid solution. The obtained lipid solution and nucleic acid solution were mixed at a flow rate ratio of 3 ml/min:6 ml/min at room temperature using NanoAssemblr (manufactured by Precision NanoSystems Inc.) to obtain a dispersion containing Luc DNA-encapsulated lipid nanoparticles. The obtained dispersion was dialyzed against water at room temperature for 1 hour and against PBS at 4° C. for 23 hours using Slyde-A-Lyzer (molecular weight cutoff: 20 K, Thermo Fischer Scientific Inc.). Subsequently, the dialysate was filtered through a 0.2 µm syringe filter (Iwaki). A 60% solution of sucrose in PBS was added thereto, and the mixture was preserved as a 20% solution of sucrose in PBS at −80° C. Analysis results of particle size and rate of encapsulation of the Luc DNA-encapsulated lipid nanoparticles are also shown in Table 2.

Data set [2] is described as follows: Rate of encapsulation of Luc DNA in lipid nanoparticles. Type of data set: physicochemical. On the set-up: unit: %. As to conditions: Luc DNA-encapsulated lipid nanoparticles; cationic lipid:DPPC:cholesterol:GM-020=60:10.6:28:1.4 molar ratio.
Text: The concentration and rate of encapsulation of the nucleic acid (e.g., siRNA or mRNA) in the composition of the present invention can be measured by a known approach. For example, the nucleic acid is fluorescently labeled using Quant-iT™ RiboGreen® (Invitrogen Corp.), and the fluorescence intensity can be measured to determine the concentration and the rate of encapsulation. The concentration of the nucleic acid in the composition can be calculated using a calibration curve prepared from aqueous nucleic acid solutions having known concentrations. The rate of encapsulation can be calculated on the basis of the difference in fluorescence intensity between the presence and absence of addition of Triton-X 100 (surfactant for disrupting the lipid particle). The concentration of the nucleic acid in the composition refers to the total concentration of a nucleic acid encapsulated in the lipid particle and an unencapsulated nucleic acid. The rate of encapsulation refers to the ratio of the nucleic acid encapsulated in the lipid particle to all nucleic acids in the composition.
as §1

A further data set concerns ICrl:CD1 (ICR) mice. Description: Mouse bioluminescence imaging evaluation (Test Example 1). As to conditions: Luc DNA-encapsulated lipid nanoparticles 10 mL/kg i.v. to ICR mice; IVIS total flux 15 minutes after luciferin i.p. It counts as in vivo. Here is the method: The Luc DNA-encapsulated lipid nanopatricles obtained in the aforesaid Production Example were intravenously administered to the tails of ICrl:CD1 (ICR) mice (10 mL/kg i.v.). After administration of the lipid particles, luciferin (15 mg/mL) was administered to the mice (10 mL/kg i.p.), which were loaded in an IVIS (in vivo imaging system) apparatus (manufactured by PerkinElmer, Inc.) under isoflurane inhalation anesthesia. Luminescence images of the mice were taken ventrally (in a supine position) 15 minutes after luciferin administration. The luminescence was digitized with the software of IVIS, followed by evaluation using the value of total flux. Higher luminescence means strong expression of the protein encoded by the DNA encapsulate in the lipid particle. In Table 2, higher luminescence is indicated on a scale of A, B and C in order. A represents luminescence of 3.0E+07 or more, B represents luminescence of 1.0E+0.7 or more and less than 3.0E+07, and C represents luminescence of less than 1.0E+07.

On to `CCCCCCCCOC(=O)CCCC(=O)OCC(COC(=O)CCCC(=O)OCCCCCCCC)(COC(=O)CCCN(C)C)COC(=O)CC(CCCCC)CCCCC` [Example 98, 1,1′-[2-({[4-(Dimethylamino)butanoyl]oxy}methyl)-2-{[(3-pentyloctanoyl)oxy]methyl}propane-1,3-diyl] 5,5′-dioctyl dipentanedioate], for which the “Particle size (nm)” value in data set [1] is recorded as 140.5 nm. The Rate of encapsulation in data set [2] was found to be 96.3. For the same compound, in the data set with ICrl:CD1 (ICR) mice, the Luminescence entry is listed as “A (A represents luminescence of 3.0E+07 or more)”.
In the case of `CCCCCC(CCCCC)CC(=O)OCC(COC(=O)CCCCC(=O)OCCCC)(COC(=O)CCN(C)C)COC(=O)CC(CCCCC)CCCCC` [Example 19, Butyl 2-{[(N,N-dimethyl-beta-alanyl)oxy]methyl}-3-[(3-pentyloctanoyl)oxy]-2-{[(3-pentyloctanoyl)oxy]methyl}propyl hexanedioate], the “Particle size (nm)” value in data set [1] is given as 89.8 nm. The Rate of encapsulation in data set [2] was 95.4. Further, the Luminescence entry in the data set with ICrl:CD1 (ICR) mice was “B (B represents luminescence of 1.0E+0.7 or more and less than 3.0E+07)”.
On to `CCCCCCCCCCC(C(=O)OC)C(=O)OCC(COC(=O)CCCN(CC)C(C)C)(COC(=O)CC(CCCCC)CCCCC)COC(=O)C(CCCCCCCCCC)C(=O)OC` (stereo not drawn) [Example 135, 1,1′-(2-[({4-[Ethyl(propan-2-yl)amino]butanoyl}oxy)methyl]-2-{[(3-pentyloctanoyl)oxy]methyl}propane-1,3-diyl) 3,3′-dimethyl bis(decylpropanedioate)], for which, in data set [1], the “Particle size (nm)” value came out at 80.1 nm. The Rate of encapsulation in data set [2] came to 97.1. Moreover, the Luminescence result with ICrl:CD1 (ICR) mice is given as “A (A represents luminescence of 3.0E+07 or more)”.
The corresponding values for `CCCCCCCOC(=O)CCCCC(=O)OCC(COC(=O)CCCCC(=O)OCCCCCCC)(COC(=O)CCN(C)C)COC(=O)CC(CCCCC)CCCCC` [Example 12, 1,1′-(2-{[(N,N-Dimethyl-beta-alanyl)oxy]methyl}-2-{[(3-pentyloctanoyl)oxy]methyl}propane-1,3-diyl) 6,6′-diheptyl dihexanedioate] are 89.5 nm, 95.7 and “C (C represents luminescence of less than 1.0E+07)”.
The corresponding values for `CCCCCOC(=O)CCCCCCC(=O)OCC(COC(=O)CCCCCCC(=O)OCCCCC)(COC(=O)CCCN(C)C)COC(=O)CC(CCCCC)CCCCC` [Example 129, 1,1′-[2-({[4-(Dimethylamino)butanoyl]oxy}methyl)-2-{[(3-pentyloctanoyl)oxy]methyl}propane-1,3-diyl] 8,8′-dipentyl dioctanedioate] are 144.9 nm, 92.6 and “A (A represents luminescence of 3.0E+07 or more)”.
Consider `CCCCCCCCCOC(=O)CCCCC(=O)OCC(COC(=O)CCCN(C)C)(COC(=O)CC(CCCCC)CCCCC)COC(=O)CC(CCCCC)CCCCC` [Example 50, 2-({[4-(Dimethylamino)butanoyl]oxy}methyl)-3-[(3-pentyloctanoyl)oxy]-2-{[(3-pentyloctanoyl)oxy]methyl}propyl nonyl hexanedioate], for which, in data set [1], the “Particle size (nm)” value is reported as 86.5 nm. Besides, in data set [2], the Rate of encapsulation is 98.2. The Luminescence result in the data set on ICrl:CD1 (ICR) mice was “B (B represents luminescence of 1.0E+0.7 or more and less than 3.0E+07)”.
Take `CCCCCC(CCCCC)COC(=O)CCC(=O)OCC(COC(=O)CCCN(C)C)(COC(=O)CC(CCCCC)CCCCC)COC(=O)CC(CCCCC)CCCCC` [Example 96, 2-({[4-(Dimethylamino)butanoyl]oxy}methyl)-3-[(3-pentyloctanoyl)oxy]-2-{[(3-pentyloctanoyl)oxy]methyl}propyl 2-pentylheptyl butanedioate]: in data set [1], the “Particle size (nm)” value was 74.2 nm. Besides, the Rate of encapsulation in data set [2] is on record as 98.8. Moreover, the Luminescence entry with ICrl:CD1 (ICR) mice is “B (B represents luminescence of 1.0E+0.7 or more and less than 3.0E+07)”.
With `CCCCCCCCCOC(=O)CCC(=O)OCC(COC(=O)CCCN(CC)C(C)C)(COC(=O)CCC(=O)OCCCCCCCCC)COC(=O)CC(CCCCC)CCCCC` [Example 100], in data set [1], the “Particle size (nm)” value was 141.8 nm. The Rate of encapsulation in data set [2] turned out to be 94.9. In addition, the Luminescence entry with ICrl:CD1 (ICR) mice was “B (B represents luminescence of 1.0E+0.7 or more and less than 3.0E+07)”.
Take `CCCCCCCCCOC(=O)CCCCC(=O)OCC(COC(=O)CCCCC(=O)OCCCCCCCCC)(COC(=O)CCCN(C)C)COC(=O)CC(CCCCC)CCCCC` [Example 44, 1,1′-[2-({[4-(Dimethylamino)butanoyl]oxy}methyl)-2-{[(3-pentyloctanoyl)oxy]methyl}propane-1,3-diyl] 6,6′-dinonyl dihexanedioate]: the “Particle size (nm)” value in data set [1] is given as 132.3 nm. Moreover, the Rate of encapsulation in data set [2] worked out at 96.3. The Luminescence entry in the data set with ICrl:CD1 (ICR) mice is “A (A represents luminescence of 3.0E+07 or more)”.
The corresponding values for `CCCCCCCOC(=O)CCCCC(=O)OCC(COC(=O)CCCN(C)C)(COC(=O)CC(CCC)CCCCCCC)COC(=O)CC(CCC)CCCCCCC` (stereo not drawn) [Example 31, 2-({[4-(Dimethylamino)butanoyl]oxy}methyl)-3-[(3-propyldecanoyl)oxy]-2-{[(3-propyldecanoyl)oxy]methyl}propyl heptyl hexanedioate] are 97.9 nm, 97.1 and “A (A represents luminescence of 3.0E+07 or more)”.
On to `CCCCCCOC(=O)C(CCCCCC)C(=O)OCC(COC(=O)CCCCN(C)C)(COC(=O)CC(CCCCC)CCCCC)COC(=O)C(CCCCCC)C(=O)OCCCCCC` (stereo not drawn) [Example 122, 1,1′-[2-({[5-(Dimethylamino)pentanoyl]oxy}methyl)-2-{[(3-pentyloctanoyl)oxy]methyl}propane-1,3-diyl] 3,3′-dihexyl bis(hexylpropanedioate)], for which the “Particle size (nm)” value in data set [1] came out at 152.1 nm. Further, the Rate of encapsulation in data set [2] came out at 96.0. Also, in the data set on ICrl:CD1 (ICR) mice, the Luminescence result is “B (B represents luminescence of 1.0E+0.7 or more and less than 3.0E+07)”.
Take `CCCCCCCOC(=O)CCCCC(=O)OCC(COC(=O)CCCCC(=O)OCCCCCCC)(COC(=O)CCCN(C)C)COC(=O)CC(CCCCCC)CCCCCC` [Example 85, 1,1′-[2-({[4-(Dimethylamino)butanoyl]oxy}methyl)-2-{[(3-hexylnonanoyl)oxy]methyl}propane-1,3-diyl] 6,6′-diheptyl dihexanedioate]: in data set [1], the “Particle size (nm)” value was 148.3 nm. Moreover, in data set [2], the Rate of encapsulation stood at 95.4. In addition, the Luminescence result in the data set with ICrl:CD1 (ICR) mice was “B (B represents luminescence of 1.0E+0.7 or more and less than 3.0E+07)”.
As for `CCCCCCCOC(=O)CCCCC(=O)OCC(COC(=O)CCCCC(=O)OCCCCCCC)(COC(=O)CCCN(CC)CC)COC(=O)CC(CCCCC)CCCCC` [Example 14, 1,1′-[2-{{[4-(Diethylamino)butanoyl]oxy}methyl)-2-{[(3-pentyloctanoyl)oxy]methyl}propane-1,3-diyl] 6,6′-diheptyl dihexanedioate], the “Particle size (nm)” value in data set [1] came out at 145.0 nm. Besides, in data set [2], the Rate of encapsulation came to 94.7. The Luminescence entry in the data set with ICrl:CD1 (ICR) mice is listed as “A (A represents luminescence of 3.0E+07 or more)”.
Take `CCCCCCCCCOC(=O)CCC(=O)OCC(COC(=O)CCCN(C)C)(COC(=O)CCC(=O)OCCCCCCCCC)COC(=O)CC(CCCCC)CCCCC` [Example 97, 1,1′-[2-({[4-(Dimethylamino)butanoyl]oxy}methyl)-2-{[(3-pentyloctanoyl)oxy]methyl}propane-1,3-diyl] 4,4′-dinonyl dibutanedioate]: the “Particle size (nm)” value in data set [1] came to 118.7 nm. In addition, the Rate of encapsulation in data set [2] turned out to be 97.8. In the data set with ICrl:CD1 (ICR) mice, the Luminescence result is reported as “A (A represents luminescence of 3.0E+07 or more)”.
